Experimental data as given in patent publication US9242991B2, “Substituted fused heterocycles as c-Met tyrosine kinase inhibitors” (BETTA PHARMACEUTICALS CO., LTD, priority 2010, dated 2016).
Values joined by “and” are separate entries in the source; they are usually repeats but may differ in a detail not shown here. Equal values may be shown once.

Legend:
[1] = target: T1, c-Met phosphorylation (pY1349) in NCI-H460 cells (Homo sapiens, UniProt P08581); experiment: HGF Stimulated Met (pY1349) NCI-H460 Cell-based ELISA; settings: for Mean (Counts − Blanks) / Mean of Activity (% Control) / Counts / Activity (% Control): 0.2 μM compound; for Mean of Activity (% Control): mean of replicates; for Counts / Activity (% Control): single replicates
T1 construct: host or cells: NCI-H460
Protocol: HGF Stimulated Met (pY1349) NCI-H460 Cell-based ELISA NCI-H460 cells (purchased from ATCC) are cultured in RPMI 1640 media (Invitrogen) supplemented with 10% Fetal Bovine Scrum (FBS) and plated (prior to becoming 70% confluent) in 96-well flat-bottom plates at a density of 20,000 cells per well in 80 μL volume. The cells are then incubated overnight in a cell culture incubator (5% CO2, 95% Relative Humidity (RH) and 37° C.) and allowed to attach to the plate. The following morning the cells are washed with 2 volumes of a Reduced Serum Media (RSM) (RPMI 1640 media supplemented with 0.5% FBS). After removal of the last wash, 80 µL of RSM is added to each well of the cell plates. The cell plates are incubated for 2.5 hours in a cell culture incubator, and then dosed with compounds. Compound inhibitors are first solubilized at 10 mM in 100% DMSO and then diluted to 100 μM with 2% DMSO RSM. Subsequently compound serial dilutions (1:3) are prepared over a 100 μM to 0.005 μM range. Cells are dosed with the addition of 20 μL of compound stock to produce a final DMSO concentration of 0.4% and a final compound concentration dose range between 20 and 0.001 μM. After dosing with compounds the cells plates are gently agitated to mix and then allowed to incubate for 30 min in a cell culture incubator. After dose completion, the cells are stimulated with the addition of 20 μL per well of Hepatocyte Growth Factor (HGF) at a final concentration of 100 ng/mL in RSM (all wells except MIN wells are stimulated, MIN wells are dosed with 20 μL RSM). After 10 min incubation in a cell culture incubator, the liquid is removed from the cell plate wells, and the cells are lysed by the addition of 50 μL of ice-cold Meso Scale Discovery® (MSD, Gaithersburg, Md.) IX Lysis Buffer (150 mM NaCl, 20 mM Tris, pH7.5, 1 mM EDTA, 1 mM ethylene glycol tetraacetic acid, and 1% TRITON® X-100) supplemented with Phosphatase I and II and Protease inhibitors (Sigma, St. Louis, Mo.). After lysis at RT for 30 min the lysates are transferred to and captured on a MSD® Multi-Spot 96-well. 4-spot PhosphoMet plate that is BSA-blocked (at 30 mg/mL Block A in IX Tris Wash Buffer) and then washed one time with Tris Wash Buffer. After 2 hours capture (at RT) the lysates are removed from the MSD® plate and the plate is washed with IX Tris Wash Buffer. After blotting, 25 μL of 5 nM Sulfo-Tag Anti-Total Met antibody (detection antibody, MSD® prepared in IX Tris Wash Buffer supplemented with 10 mg/mL BSA and 0.1% Blocker D-R (MSD®)) is added to the wells of the MSD® plate. After 1 hour capture (at RT) the MSD® plate wells are washed with IX Tris Wash Buffer, and then 150 μL of IX Read Buffer T (with surfactant, MSD®) is added. Immediately after the addition of the Read Buffer, the plates are analyzed with a SECTOR 6000 MSD® Imager plate reader. Relative IC50 values are determined using MSD activity units by calculating percent inhibition with respect to on-plate “MIN” and “MAX” controls and then fitting the percent inhibition values and ten-point dose response data to a four-parameter logistic equation. This assay has a Minimum Significant Ratio (MSR) of 2.06.

U87MG tumors = experiment: Xenograft tumor model, U87MG; format: in vivo, human; settings: BID×35, athymic nude mice
Protocol: (§1) Human glioblastoma cells U87MG, human gastric cancer cells MKN45, human non small cell lung cancer cells H441, and human renal carcinoma cells Caki-1 are expanded in culture, harvested, and injected subcutaneous Iy onto the rear flank of athymic nude mice. Testing compound is prepared in an appropriate vehicle and is administered by oral gavage when tumors are established (7-21 days after implant). Tumor response is determined by tumor volume measurement performed twice a week during the course of treatment. Tumor volume inhibition (% growth inhibition) is calculated by comparing treated groups to a vehicle control group. Body weight is taken as a general measurement of toxicity. […] At 60 mg/kg dose (PO, BID×35), 82% growth inhibition is achieved. At 120 mg/kg dose (PO, BID×35), 92% growth inhibition reaches.

[2] = test system: U87MG, MKN45, H441 and Caki-1 tumors; experiment: Xenograft Tumor Models (U87MG, MKN45, H441, Caki-1); format: in vivo, human; settings: oral gavage, athymic nude mice
Protocol: as §1

[3] = target: T2, c-Met phosphorylation in SI 14 tumors (human c-Met) (Homo sapiens, UniProt P08581); experiment: c-Met In Vivo Target Inhibition Assay (SI 14 tumors in nude mice, phosphor-Met ELISA); settings: oral gavage, read-out: ED50 (dose that produces 50% inhibition in tumor)
T2 construct: host or cells: SI 14 (S114) cells as subcutaneous tumours in athymic nude mice
Protocol: SI 14 cells (licensed from PHS, over-express both human HGF and human c-Met) are cultured in a growth media (Dulbecco's Modified Eagle Medium) supplemented with 10% fetal calf serum and expanded. Cells are harvested and washed twice with phosphate buffered saline and 2×10^6 cells are mixed with equal volume of BD Matrigel™ matrix (BD Bioscience, Franklin, N.J.), and injected subcutaneous Iy into the flank of nude mice (athymic nude, from Harlan, Indianapolis, Ind.). At day 8 after implant, compounds (formulated in 10% acacia or 1% carboxymethylcellulose/0.5% sodium lauryl sulfate/0.05% antifoam as suspension) are administered to animals by oral gavage at 50 mg/kg. Animals are sacrificed at 2 hours post dose, and tumors are harvested and stored frozen until needed.
Frozen tumors are pulverized using motar-pastel. The pulverized tissues are transferred to a tube containing Lysing Matrix D beads (MP Biomedicals, Solon, Ohio) and 600 μL lysis buffer (RIPA buffer, containing 50 mM Tris-HCl, pH7.4, 150 mM NaCl, 1% NP-40, 0.5% sodium deoxycholate, 0.1% SDS, from Boston Bioproducts). A FastPrep® Cell Disrupter (MP Biomedicals) is used to disrupt the tissue and lyse the cells. […] Protein concentration is determined by Bradford method. Tumor lysates are loaded onto MSD® phosphor-Met ELISA plates and phosphor-c-Met level is determined using the same protocol as H460 cell-based ELISA. […]

T1 sequence (P08581 25-1390): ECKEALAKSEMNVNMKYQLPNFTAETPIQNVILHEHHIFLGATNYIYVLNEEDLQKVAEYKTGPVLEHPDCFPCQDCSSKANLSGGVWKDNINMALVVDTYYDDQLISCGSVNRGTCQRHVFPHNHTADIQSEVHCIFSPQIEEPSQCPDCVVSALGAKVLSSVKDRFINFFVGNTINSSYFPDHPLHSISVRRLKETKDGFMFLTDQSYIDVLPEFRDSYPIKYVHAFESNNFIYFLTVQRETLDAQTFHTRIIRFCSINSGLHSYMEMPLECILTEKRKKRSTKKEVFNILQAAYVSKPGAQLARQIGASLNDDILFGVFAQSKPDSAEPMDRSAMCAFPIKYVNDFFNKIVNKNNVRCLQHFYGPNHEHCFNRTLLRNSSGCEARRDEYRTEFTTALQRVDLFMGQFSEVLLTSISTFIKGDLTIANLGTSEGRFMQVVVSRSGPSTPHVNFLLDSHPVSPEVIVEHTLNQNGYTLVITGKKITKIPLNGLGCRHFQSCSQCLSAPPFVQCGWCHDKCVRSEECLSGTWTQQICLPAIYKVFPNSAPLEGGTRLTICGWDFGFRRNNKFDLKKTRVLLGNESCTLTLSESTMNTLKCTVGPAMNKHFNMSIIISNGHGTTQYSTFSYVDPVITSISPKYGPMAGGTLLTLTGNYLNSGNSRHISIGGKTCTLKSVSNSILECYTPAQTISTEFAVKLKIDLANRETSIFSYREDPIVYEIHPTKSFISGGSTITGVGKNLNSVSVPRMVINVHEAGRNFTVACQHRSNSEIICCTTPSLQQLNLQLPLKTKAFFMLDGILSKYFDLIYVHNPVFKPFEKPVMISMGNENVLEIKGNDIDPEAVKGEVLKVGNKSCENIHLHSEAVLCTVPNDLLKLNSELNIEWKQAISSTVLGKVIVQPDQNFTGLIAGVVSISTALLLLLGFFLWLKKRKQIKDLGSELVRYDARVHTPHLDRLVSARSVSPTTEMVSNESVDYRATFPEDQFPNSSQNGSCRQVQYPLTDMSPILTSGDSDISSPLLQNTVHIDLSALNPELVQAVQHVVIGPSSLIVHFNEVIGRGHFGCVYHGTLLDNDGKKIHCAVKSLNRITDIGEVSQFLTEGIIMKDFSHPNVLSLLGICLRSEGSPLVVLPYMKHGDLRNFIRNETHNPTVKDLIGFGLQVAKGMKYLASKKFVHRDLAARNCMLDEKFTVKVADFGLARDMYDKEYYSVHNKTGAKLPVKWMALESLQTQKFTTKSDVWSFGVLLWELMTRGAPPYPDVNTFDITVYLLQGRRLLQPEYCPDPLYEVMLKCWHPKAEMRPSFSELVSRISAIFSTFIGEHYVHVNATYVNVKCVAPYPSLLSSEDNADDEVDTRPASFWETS
T2 sequence (P08581 25-1390): as above

SMILES	Mean (Counts − Blanks) [1]	Mean of Activity (% Control) [1] [% Control]	Counts [1]	Activity (% Control) ([1]; 0.2 µM)	melting point [°C]	Activity (% Control) [1] [% Control]	IC50 ([1]; NCI-H460 cells, HGF 100 ng/mL, Example 1 value is average of n=6, read-out: IC50 (inhibition of c-Met phosphorylation in cells)) [µM]	ED50 [3] [mg/kg]	growth inhibition of U87MG tumors (U87MG tumors; 30 mg/kg PO) [%]	growth inhibition of U87MG tumors (U87MG tumors; 60 mg/kg PO) [%]	growth inhibition of U87MG tumors (U87MG tumors; 120 mg/kg PO) [%]	anti-tumor activity in xenograft models [2]
O=C(Nc1ccc(Oc2ccnc3cc4c(cc23)OCCOCCOCCO4)c(F)c1)c1c[nH]cc(-c2ccc(F)cc2)c1=O [Example 10, 5-(4-Fluoro-phenyl)-4-oxo-1,4-dihydro-pyridine-3-carboxylic acid [3-fluoro-4-(7,8,10,11,13,14-hexahydro-6,9,12,15-tetraoxa-1-aza-cyclododeca[b]naphthalen-4-yloxy)-phenyl]-amide]	28866	25	30524 and 29012	28 % Control and 21 % Control	188 to 190							
Cn1c(Nc2ccc(F)cc2)ncc(-c2ccc(Oc3ncnc4cc5c(cc34)OC(F)(F)O5)cn2)c1=O [Example 8, 5-[5-(2,2-Difluoro-[1,3]dioxolo[4,5-g]quinazolin-8-yloxy)-pyridin-2-yl]-2-(4-fluoro-phenylamino)-3-methyl-3H-pyrimidin-4-one]	28728	24	30429 and 28830	27 % Control and 20 % Control								
O=C(Nc1ccc(Oc2ncnc3cc4c(cc23)OCO4)c(F)c1)c1c[nH]cc(-c2ccc(F)cc2)c1=O [Example 9, 5-(4-Fluoro-phenyl)-4-oxo-1,4-dihydro-pyridine-3-carboxylic acid [4-([1,3]dioxolo[4,5-g]quinazolin-8-yloxy)-3-fluoro-phenyl]-amide]	27649	19	28364 and 28738	18 % Control and 20 % Control								
Cn1c(Nc2ccc(F)cc2)ncc(-c2ccc(Oc3ncnc4cc5c(cc34)OCCOCCOCCO5)cn2)c1=O [Example 6, 2-(4-Fluoro-phenylamino)-5-[5-(7,8,10,11,13,14-hexahydro-6,9,12,15-tetraoxa-1,3-diaza-cyclododeca[b]naphthalen-4-yloxy)-pyridin-2-yl]-3-methyl-3H-pyrimidin-4-one]	29068	25	30847 and 29093	29 % Control and 21 % Control								
O=C(Nc1ccc(Oc2ccnc3cc4c(cc23)OCCOCCOCCO4)c(F)c1)c1cccn(-c2ccc(F)cc2)c1=O [Example 11, 1-(4-Fluoro-phenyl)-2-oxo-1,2-dihydro-pyridine-3-carboxylic acid [3-fluoro-4-(7,8,10,11,13,14-hexahydro-6,9,12,15-tetraoxa-1-aza-cyclododeca[b]naphthalen-4-yloxy)-phenyl]-amide]	31407	35	32582 and 32035	36 % Control and 34 % Control								
O=C(Nc1ccc(Oc2ncnc3cc4c(cc23)OCCOCCOCCO4)c(F)c1)c1c[nH]cc(-c2ccc(F)cc2)c1=O [Example 1, 5-(4-Fluoro-phenyl)-4-oxo-1,4-dihydro-pyridine-3-carboxylic acid [3-fluoro-4-(7,8,10,11,13,14-hexahydro-6,9,12,15-tetraoxa-1,3-diaza-cyclododeca[b]naphthalen-4-yloxy)-phenyl]-amide]	50	0	1008 and 895		188 to 190	0	0.0352	2.9	59	82	92	excellent dose dependent anti-tumor activity

Further lines, with some results ahead:

Mean (Counts − Blanks) [1]	Mean of Activity (% Control) [1] [% Control]	Counts [1]	Activity (% Control) ([1]; 0.2 µM)	melting point [°C]	Activity (% Control) [1] [% Control]	IC50 ([1]; NCI-H460 cells, HGF 100 ng/mL, Example 1 value is average of n=6, read-out: IC50 (inhibition of c-Met phosphorylation in cells)) [µM]	ED50 [3] [mg/kg]	SMILES	growth inhibition of U87MG tumors (U87MG tumors; 30 mg/kg PO) [%]	growth inhibition of U87MG tumors (U87MG tumors; 60 mg/kg PO) [%]	growth inhibition of U87MG tumors (U87MG tumors; 120 mg/kg PO) [%]	anti-tumor activity in xenograft models [2]
29384	27	31741 and 28830	33 % Control and 20 % Control					CN1CCOc2cc3ncnc(Oc4ccc(-c5cnc(Nc6ccc(F)cc6)n(C)c5=O)nc4)c3cc2OCC1 [Example 21, 2-(4-Fluoro-phenylamino)-3-methyl-5-[5-(9-methyl-8,9,10,11-tetrahydro-7H-6,12-dioxa-1,3,9-triaza-cyclonona[b]naphthalen-4-yloxy)-pyridin-2-yl]-3H-pyrimidin-4-one]				
32073	39	34234 and 31716	44 % Control and 33 % Control					Cn1c(Nc2ccc(F)cc2)ncc(-c2ccc(Oc3ncnc4cc5c(cc34)OCCCO5)cn2)c1=O [Example 20, 5-[5-(8,9-Dihydro-7H-6,10-dioxa-1,3-diaza-cyclohepta[b]naphthalen-4-yloxy)-pyridin-2-yl]-2-(4-fluoro-phenylamino)-3-methyl-3H-pyrimidin-4-one]				
30	1	1070 and 793	1 % Control and 0 % Control					Cn1c(Nc2ccccc2)ncc(-c2ccc(Oc3ccnc4cc5c(cc34)OC(F)(F)O5)cn2)c1=O [Example 28, 5-[5-(2,2-Difluoro-[1,3]dioxolo[4,5-g]quinolin-8-yloxy)-pyridin-2-yl]-2-(phenylamino)-3-methyl-3H-pyrimidin-4-one]				
17936	37	20248 and 17427	43 % Control and 31 % Control					Cn1c(Nc2ccccc2)ncc(-c2ccc(Oc3ccnc4cc5c(cc34)OCCOCCOCCOCCOCCO5)cn2)c1=O [Example 31, 5-[5-(2,5,8,11,14,17-Hexaoxa-21-aza-tricyclo[16.8.0.020,25]hexacosa-1(18), 19,21,23,25-pentaen-24-yloxy)-pyridin-2-yl]-3-methyl-2-phenylamino-3 H-pyrimidin-4-one]				
